Assays:
Experiment in all cases: in vitro antibacterial activity, agar dilution MIC
Assay type in all cases: cell-based
[1] = test system: Staphylococcus aureus A5177; design: unit not given here; settings: organism code BB, BHI agar, 35-37 °C, 20 to 24 hours
Procedure: (§1) Representative compounds of the present invention were assayed in vitro for antibacterial activity as follows: Twelve petri dishes containing successive aqueous dilutions of the test compound mixed with 10 mL of sterilized Brain Heart Infusion (BHI) agar (Difco 0418-01-5) were prepared. Each plate was inoculated with 1:100 (or 1:10 for slow-growing strains, such as Micrococcus and Streptococcus) dilutions of up to 32 different microorganisms, using a Steers replicator block. […] In addition, a control plate, using BHI agar containing no test compound, was prepared and incubated at the beginning and end of each test
(§2) An additional plate containing a compound having known susceptibility patterns for the organisms being tested and belonging to the same antibiotic class as the test compound was also prepared and incubated as a further control, as well as to provide test-to-test comparability.
(§3) After incubation, each plate was visually inspected. The minimum inhibitory concentration (MIC) was defined as the lowest concentration of drug yielding no growth, a slight haze, or sparsely isolated colonies on the inoculum spot as compared to the growth control.

[2] = test system: Mycobacterium smegmatis ATCC 114; design: unit not given here; settings: organism code UU, BHI agar, 35-37 °C, 20 to 24 hours
Procedure: as §1, §2, §3

[3] = test system: Staphylococcus aureus ATCC 6538P; design: unit not given here; settings: organism code AA, BHI agar, 35-37 °C, 20 to 24 hours
Procedure: (§4) Erythromycin A was used for this purpose.
(§5) After incubation, each plate was visually inspected.

[4] = test system: Streptococcus bovis A-5169; design: unit not given here; settings: organism code JJ, BHI agar, 35-37 °C, 20 to 24 hours
Procedure: as §4, §5

[5] = test system: Streptococcus agalactiae CMX 508; design: unit not given here; settings: organism code KK, BHI agar, 35-37 °C, 20 to 24 hours
Procedure: as §4, §5

[6] = test system: Streptococcus Pheumoniae ATCC6303; design: unit not given here; settings: organism code XX, BHI agar, 35-37 °C, 20 to 24 hours
Procedure: as §4, §5

[7] = test system: Streptococcus pyogenes EES61; design: unit not given here; settings: organism code LL, BHI agar, 35-37 °C, 20 to 24 hours
Procedure: as §4, §5

[8] = test system: Streptococcus Pheumoniae 5649; settings: organism code ZZA, BHI agar, 35-37 °C, 20 to 24 hours
Procedure: as §4, §5

Escherichia coli JUHL = settings: organism code QQ, BHI agar, 35-37 °C, 20 to 24 hours
Procedure: as §4, §5

[9] = test system: Enterococcus faecium ATCC 8043; settings: organism code II, BHI agar, 35-37 °C, 20 to 24 hours
Procedure: as §4, §5

[10] = test system: Streptococcus Pheumoniae GYR 1171; settings: organism code YY, BHI agar, 35-37 °C, 20 to 24 hours
Procedure: as §4, §5

[11] = test system: Micrococcus luteus ATCC 9341; settings: organism code OO, BHI agar, 35-37 °C, 20 to 24 hours
Procedure: as §4, §5

[12] = test system: Staphylococcus epidermidis 3519; settings: organism code HH, BHI agar, 35-37 °C, 20 to 24 hours
Procedure: as §4, §5

[13] = test system: Staphylococcus aureus CMX 553; settings: organism code FF, BHI agar, 35-37 °C, 20 to 24 hours
Procedure: as §4, §5

Escherichia coli SS = settings: organism code RR, BHI agar, 35-37 °C, 20 to 24 hours
Procedure: as §4, §5

[14] = test system: Haemophilis Influenzae DILL AMP R; settings: organism code WW, BHI agar, 35-37 °C, 20 to 24 hours
Procedure: as §4, §5

[15] = test system: Micrococcus luteus ATCC 4698; settings: organism code PP, BHI agar, 35-37 °C, 20 to 24 hours
Procedure: as §4, §5

[16] = test system: Staphylococcus aureus NCTC10649M; settings: organism code EE, BHI agar, 35-37 °C, 20 to 24 hours
Procedure: as §4, §5

[17] = test system: Nocardia Asteroides ATCC9970; settings: organism code VV, BHI agar, 35-37 °C, 20 to 24 hours
Procedure: as §4, §5

[18] = test system: Staphylococcus aureus CMX 642A; settings: organism code DD, BHI agar, 35-37 °C, 20 to 24 hours
Procedure: as §4, §5

Candida albicans CCH 442 = settings: organism code TT, BHI agar, 35-37 °C, 20 to 24 hours
Procedure: as §1, §2, §3

[19] = test system: Streptococcus pyogenes PIU 2548; settings: organism code NN, BHI agar, 35-37 °C, 20 to 24 hours
Procedure: as §1, §2, §3

[20] = test system: Staphylococcus aureus 1775; settings: organism code GG, BHI agar, 35-37 °C, 20 to 24 hours
Procedure: as §1, §2, §3

[21] = test system: Staphylococcus aureus A-5278; settings: organism code CC, BHI agar, 35-37 °C, 20 to 24 hours
Procedure: as §1, §2, §3

[22] = test system: Streptococcus Pheumoniae 5979; settings: organism code ZZ, BHI agar, 35-37 °C, 20 to 24 hours
Procedure: as §1, §2, §3

[23] = test system: Streptococcus pyogenes 930; settings: organism code MM, BHI agar, 35-37 °C, 20 to 24 hours
Procedure: as §1, §2, §3

Escherichia coli DC-2 = settings: organism code SS, BHI agar, 35-37 °C, 20 to 24 hours
Procedure: as §1, §2, §3

SMILES | minimum inhibitory concentration (MIC) [1] | minimum inhibitory concentration (MIC) [2] | minimum inhibitory concentration (MIC) [3] | minimum inhibitory concentration (MIC) [4] | minimum inhibitory concentration (MIC) [5] | minimum inhibitory concentration (MIC) [6] | minimum inhibitory concentration (MIC) [7] | minimum inhibitory concentration (MIC) [8] | minimum inhibitory concentration (MIC) (Escherichia coli JUHL) | minimum inhibitory concentration (MIC) [9] | minimum inhibitory concentration (MIC) [10] | minimum inhibitory concentration (MIC) [11] | minimum inhibitory concentration (MIC) [12] | minimum inhibitory concentration (MIC) [13] | minimum inhibitory concentration (MIC) (Escherichia coli SS) | minimum inhibitory concentration (MIC) [14] | minimum inhibitory concentration (MIC) [15] | minimum inhibitory concentration (MIC) [17] | minimum inhibitory concentration (MIC) [18] | minimum inhibitory concentration (MIC) (Candida albicans CCH 442) | further results
CC[C@H]1OC(=O)[C@H](C)[C@@H](O[C@H]2C[C@@](C)(OC)[C@@H](O)[C@H](C)O2)[C@H](C)[C@@H](O[C@@H]2O[C@H](C)C[C@H](N(C)C)[C@H]2O)[C@@]2(C)C[C@@H](C)C(=O)[C@H](C)[C@H]3N(CCC=CCO2)C(=O)O[C@]13C [Example 17, Compound of Formula (I), R^p is H, m is 2, A is absent, B is absent, D is absen, E is-(CH2)r-CH=CH-, r is 0, n is 1] | 6.2 | 0.2 | 0.1 | 0.01 | 0.01 | 0.015 | 0.02 | 8 | >100 | 0.05 | 0.015 | 0.02 | 0.2 | 0.1 | 0.78 | 8 | 0.1 | 0.02 | 0.2 | >100 | minimum inhibitory concentration (MIC) [16]: 0.2; minimum inhibitory concentration (MIC) [19]: 25; minimum inhibitory concentration (MIC) [20]: >100; minimum inhibitory concentration (MIC) [21]: >100; minimum inhibitory concentration (MIC) [22]: >128; minimum inhibitory concentration (MIC) [23]: >100; minimum inhibitory concentration (MIC) (Escherichia coli DC-2): >100
CC[C@H]1OC(=O)[C@H](C)[C@@H](O[C@H]2C[C@@](C)(OC)[C@@H](O)[C@H](C)O2)[C@H](C)[C@@H](O[C@@H]2O[C@H](C)C[C@H](N(C)C)[C@H]2O)[C@](C)(O)C[C@@H](C)C(=O)[C@H](C)[C@@H](O)[C@]1(C)O [Ery. A, Erythromycin A, reference compound] | 3.1 | 3.1 | 0.2 | 0.02 | 0.05 | 0.06 | 0.05 | 16 | >100 | 0.05 | 0.06 | 0.05 | 0.39 | 0.39 | 0.78 | 4 | 0.2 | 0.1 | 0.39 | >100 | minimum inhibitory concentration (MIC) [16]: 0.39; minimum inhibitory concentration (MIC) [19]: 6.2; minimum inhibitory concentration (MIC) [20]: >100; minimum inhibitory concentration (MIC) [21]: >100; minimum inhibitory concentration (MIC) [23]: >100; minimum inhibitory concentration (MIC) (Escherichia coli DC-2): >100
CC[C@H]1OC(=O)[C@H](C)[C@@H](O[C@H]2C[C@@](C)(OC)[C@@H](O)[C@H](C)O2)[C@H](C)[C@@H](O[C@@H]2O[C@H](C)C[C@H](N(C)C)[C@H]2O)[C@@]2(C)C[C@@H](C)C(=O)[C@H](C)[C@H]3N(CCNC(=O)c4ccccc4C=CCO2)C(=O)O[C@]13C [Example 4, Compound of Formula (I), 2'-R^p is H, 4"-R^p is H, m is 2, A is NH, B is -C(O)-(CH2)q-, q is 0, D is 1,2-phenylene, E is-(CH2)r-CH=CH-, r is 0, n is 1] | 25 | 3.1 | 1.56 | 0.2 | 0.2 | 0.03 | 0.39 | 16 | 100 | 0.39 | 0.03 | 0.2 | 1.56 | 1.56 | 6.2 | 16 | 1.56 | 0.2 | 1.56 | >100 | minimum inhibitory concentration (MIC) [19]: 12.5; minimum inhibitory concentration (MIC) [20]: >100; minimum inhibitory concentration (MIC) [21]: >100; minimum inhibitory concentration (MIC) [22]: >128; minimum inhibitory concentration (MIC) [23]: >100; minimum inhibitory concentration (MIC) (Escherichia coli DC-2): >100
CC[C@H]1OC(=O)[C@H](C)[C@@H](O[C@H]2C[C@@](C)(OC)[C@@H](O)[C@H](C)O2)[C@H](C)[C@@H](O[C@@H]2O[C@H](C)C[C@H](N(C)C)[C@H]2O)[C@@]2(C)C[C@@H](C)C(=O)[C@H](C)[C@H]3N(CCNCc4cccc(c4)C=CCO2)C(=O)O[C@]13C [Example 11, Compound of Formula (I), 2'-R^p is H, 4"-R^p is H, m is 2, A is NH, B is-(CH2)q-, q is 1, D is 1,3-phenylene, E is-(CH2)r-CH=CH-, r is 0, n is 1] | 50 | 0.2 | 3.1 | 0.1 | 0.1 | 0.12 | 0.2 | 32 | >100 | 0.2 | 0.25 | 0.2 | 3.1 | 3.1 | 6.2 | 32 | 3.1 | 0.2 | 3.1 | >100 | minimum inhibitory concentration (MIC) [19]: 12.5; minimum inhibitory concentration (MIC) [20]: >100; minimum inhibitory concentration (MIC) [21]: >100; minimum inhibitory concentration (MIC) [22]: >128; minimum inhibitory concentration (MIC) [23]: >100; minimum inhibitory concentration (MIC) (Escherichia coli DC-2): >100

Source: EP1027361B1, “6,11-BRIDGED ERYTHROMYCIN DERIVATIVES” (Abbott Laboratories, priority 1997, dated 1999)
